Measurements taken from ChEMBL document CHEMBL5352476, “A comprehensive overview of Artemisinin and its derivatives as anticancer agents” (Eur J Med Chem, 2023).

Key:
[1] = test system: RPMI-7951; assay: Antiproliferative activity against human RPMI-7951 cells assessed as inhibition of cell growth incubated for 24 hrs by MTT assay; type: functional, cell-based; conditions: RPMI-7951, 24 h
[2] = test system: SK-MEL3; assay: Antiproliferative activity against human SK-MEL3 cells assessed as inhibition of cell growth incubated for 24 hrs by MTT assay; type: functional, cell-based; conditions: SK-MEL3, 24 h
[3] = test system: SK-BR-3; assay: Antiproliferative activity against human SK-BR-3 cells assessed as inhibition of cell growth; type: functional, cell-based
[4] = test system: HCT-116; assay: Antiproliferative activity against human HCT-116 cells assessed as inhibition of cell growth; type: functional, cell-based
[5] = test system: MDA-MB-231; assay: Antiproliferative activity against human MDA-MB-231 cells assessed as inhibition of cell growth; type: functional, cell-based
[6] = test system: HeLa; assay: Antiproliferative activity against human HeLa cells assessed as inhibition of cell growth; type: functional, cell-based
[7] = Cytotoxicity against human WI-38 cells assessed as inhibition of cell growth incubated for 72 hrs by MTT assay; type: toxicity, cell-based
[8] = test system: NCI-H460; assay: Antiproliferative activity against human NCI-H460 cells assessed as inhibition of cell growth incubated for 72 hrs by MTT assay; type: functional, cell-based; conditions: NCI-H460, 72 h
[9] = test system: HL-60; assay: Antiproliferative activity against human HL-60 cells assessed as inhibition of cell growth incubated for 72 hrs by MTT assay; type: functional, cell-based; conditions: HL-60, 72 h
[10] = test system: HT-29; assay: Antiproliferative activity against human HT-29 cells assessed as inhibition of cell growth incubated for 72 hrs by MTT assay; type: functional, cell-based; conditions: HT-29, 72 h
[11] = test system: U-87 MG; assay: Antiproliferative activity against human U-87 MG cells assessed as inhibition of cell growth incubated for 72 hrs by MTT assay; type: functional, cell-based, U-87MG ATCC
[12] = test system: A549; assay: Antiproliferative activity against human A549 cells assessed as inhibition of cell growth incubated for 72 hrs by MTT assay; type: functional, cell-based; conditions: A549, 72 h
[13] = test system: MDA-MB-231; assay: Antiproliferative activity against human MDA-MB-231 cells assessed as inhibition of cell growth incubated for 72 hrs by MTT assay; type: functional, cell-based; conditions: MDA-MB-231, 72 h
[14] = test system: MCF7; assay: Antiproliferative activity against human MCF7 cells assessed as inhibition of cell growth incubated for 72 hrs by MTT assay; type: functional, cell-based; conditions: MCF7, 72 h
[15] = test system: HCT-116; assay: Antiproliferative activity against human HCT-116 cells assessed as inhibition of cell growth incubated for 72 hrs by MTT assay; type: functional, cell-based; conditions: HCT-116, 72 h
[16] = test system: PC-12; assay: Antiproliferative activity against PC-12 cells assessed as inhibition of cell growth incubated for 72 hrs by MTT assay; type: functional, cell-based; conditions: Rattus norvegicus, PC-12, 72 h
[17] = Cytotoxicity against human L02 cells assessed as inhibition of cell growth incubated for 72 hrs by MTT assay; type: toxicity, cell-based
[18] = test system: U-118-MG; assay: Antiproliferative activity against human U-118-MG cells assessed as inhibition of cell growth incubated for 72 hrs by MTT assay; type: functional, cell-based
[19] = test system: SH-SY5Y; assay: Antiproliferative activity against human SH-SY5Y cells assessed as inhibition of cell growth incubated for 72 hrs by MTT assay; type: functional, cell-based
[20] = test system: HepG2; assay: Antiproliferative activity against human HepG2 cells assessed as inhibition of cell growth by MTT assay; type: functional, cell-based
[21] = test system: HeLa; assay: Antiproliferative activity against human HeLa cells assessed as inhibition of cell growth incubated for 72 hrs by MTT assay; type: functional, cell-based
[22] = test system: U-87 MG; assay: Antiproliferative activity against human U87 cells assessed as inhibition of cell growth incubated for 72 hrs by MTT assay; type: functional, cell-based, U-87MG ATCC
[23] = test system: U-87 MG; assay: Antiproliferative activity against human U87 cells assessed as inhibition of cell growth incubated for 24 hrs by MTT assay; type: functional, cell-based, U-87MG ATCC
[24] = test system: A549; assay: Antitumor activity against human A549 cells xenografted in nude mouse assessed as tumor growth inhibition rate relative to control; type: functional
[25] = Antiproliferative activity against mouse Lewis lung carcinoma cell line assessed as inhibition of cell growth incubated for 48 hrs by MTT assay; type: functional, cell-based
[26] = test system: A549; assay: Antiproliferative activity against human A549 cells assessed as inhibition of cell growth incubated for 96 hrs by MTT assay; type: functional, cell-based; conditions: A549, 96 h

`COC(=O)C(Cc1ccc(OC(=O)CCC(=O)O[C@@H]2O[C@@H]3O[C@@]4(C)CC[C@H]5[C@H](C)CC[C@@H]([C@H]2C)[C@@]35OO4)cc1)NC(=O)CCC(=O)O[C@@H]1O[C@@H]2O[C@@]3(C)CC[C@H]4[C@H](C)CC[C@@H]([C@H]1C)[C@@]24OO3` (stereo partly drawn) showed an IC50 [1] of 1760 nM.

In the case of `COc1cc(/C=C\C(=O)CC(=O)/C=C\c2ccc(OC(=O)O[C@@H]3O[C@@H]4O[C@@]5(C)CC[C@H]6[C@H](C)CC[C@@H]([C@H]3C)[C@@]46OO5)c(OC)c2)ccc1OC(=O)CCC(=O)O[C@@H]1O[C@@H]2O[C@@]3(C)CC[C@H]4[C@H](C)CC[C@@H]([C@H]1C)[C@@]24OO3`, the IC50 [2] is reported as 3000 nM.

For `C[C@H]1[C@@H](CCCOC(=O)NCCC[P+](c2ccccc2)(c2ccccc2)c2ccccc2)O[C@@H]2O[C@@]3(C)CC[C@H]4[C@H](C)CC[C@@H]1[C@@]24OO3`, the IC50 [3] was 820 nM, the IC50 [4] was 820 nM and the IC50 [5] was 820 nM. The IC50 [6] was 820 nM.

Work on `C[C@@H]1CC[C@H]2[C@@H](C)C(OCCNC(=O)c3ccc(COc4ccc(/C=C/S(=O)(=O)Nc5ccc(OC(F)(F)F)cc5)cc4)cc3)O[C@@H]3O[C@@]4(C)CC[C@@H]1[C@]32OO4` (stereo partly drawn) yielded an IC50 at 72 h [7] of 90 nM, an IC50 [8] of 90 nM and an IC50 [9] of 90 nM. The IC50 [10] was 90 nM, the IC50 [11] was 90 nM and the IC50 [12] was 90 nM. For the same compound, the IC50 [13] was 90 nM.

`C[C@@H]1CC[C@H]2[C@@H](C)C(N3CCN(C(=O)Oc4ccc(SC(F)(F)F)cc4)CC3)O[C@@H]3O[C@@]4(C)CC[C@@H]1[C@]32OO4` (stereo partly drawn) showed an IC50 [14] of no less than 120 nM, an IC50 [15] of 120 nM and an IC50 [11] of no less than 120 nM. It also gave an IC50 [16] of no less than 120 nM, an IC50 [12] of no less than 120 nM and an IC50 at 72 h [17] of 12500 nM. For the same compound, the IC50 [18] was no less than 120 nM and the IC50 [19] was no less than 120 nM.

`CCCCCCCCCCCC[C@H](O)C[C@H]1O[C@@H]2O[C@@]3(C)CC[C@H]4[C@H](C)CC[C@@H]([C@H]1C)[C@@]24OO3` gave an IC50 [20] of 2800 nM.

`COc1ccc(OC)c(/C=C/C(=O)c2ccc(OCC(=O)N[C@@H]3O[C@@H]4O[C@@]5(C)CC[C@H]6[C@H](C)CC[C@@H]([C@H]3C)[C@@]46OO5)cc2)c1` gave an IC50 [8] of 190 nM, an IC50 [10] of 190 nM and an IC50 [21] of 190 nM. The IC50 [13] was 190 nM.

`C[C@H]1[C@H](OC(=O)CCC(=O)OCc2ccc(OC(=O)CCC(=O)O[C@@H]3O[C@@H]4O[C@@]5(C)CC[C@H]6[C@H](C)CC[C@@H]([C@H]3C)[C@@]46OO5)cc2)O[C@@H]2O[C@@]3(C)CC[C@H]4[C@H](C)CC[C@@H]1[C@@]24OO3` showed an IC50 [1] of 50 nM.

Compound `CCCCCCCCCCCCC(=O)C[C@H]1O[C@@H]2O[C@@]3(C)CC[C@H]4[C@H](C)CC[C@@H]([C@H]1C)[C@@]24OO3` has an IC50 [20] of 1400 nM.

`C[C@H]1[C@@H](OCCCN=C=S)O[C@@H]2O[C@@]3(C)CC[C@H]4[C@H](C)CC[C@@H]1[C@@]24OO3` showed an IC50 [22] of 7350 nM and an IC50 [23] of 7410 nM.

For `C[C@H]1[C@@H](O)O[C@@H]2O[C@@]3(C)CC[C@H]4[C@H](C)CC[C@@H]1[C@@]24OO3` [ARTENIMOL], the “inhibition (INH)” value [24] was 54.3%, the IC50 [25] was 53100 nM and the IC50 [26] was 230 nM.
